Measurements as given in patent publication US20250129430A1, “HIGH ATP-AFFINITY PROTEIN AS THERAPEUTIC TARGET FOR INTRACTABLE CANCER MOLECULAR SUBTYPES AND INHIBITOR THEREOF” (VeraVerse Co., Ltd., priority 2021, published 2025).
Where a name gives a salt, the structure may show the parent alone.

Experiments:
Format in all cases: cell-based, human
[1] = tested on: non-SEM-type gastric cancer cell line; test: Cell viability drug screen, AUC summary over non-SEM-type lines; conditions: in the non-SEM-type gastric cancer cell line
FU97 = test: Cell viability drug screen, 12-point dose-response AUC; parameters: Average Area Under the Viability Curve (AUC), AUC norm value: scale not given here; conditions: FU97 cells; 72 hours
How it was run: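 Trapezoidal AUC of a 12-point, DMSO-normalized dose-response curve. Luminescent viability was measured after 72 h of exposure at 37° C to half-log serial dilutions (0.5% DMSO control), dosed 24 h after plating FU97 cells at 5×10^3 per well.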

NCI_N87 = test: as above; conditions: NCI_N87 cells; 72 hours
How it was run: (§1)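 AUC comes from 12-point half-log dose–response curves, normalized to DMSO-treated cells and integrated trapezoidally, repeats averaged. Luminescent viability read after 72 h compound exposure at 37 °C; cells plated 5×10^3 per well 24 h before dosing.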

SNU638 = test: as above; conditions: SNU638 cells; 72 hours
How it was run: as §1

SNU216 = test: as above; conditions: SNU216 cells (non-SEM subtype); 72 hours
How it was run: (§2)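 Viability: luminescence (Glo kit, 15 min RT), normalized to 0.5% DMSO vehicle. Dosing: half-log, 12 concentrations, 72 h. Cells: 5×10^3/well, treated 24 h after plating. Value: trapezoidal AUC, mean of repeats.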

MKN1 = test: as above; conditions: MKN1 cells; 72 hours
How it was run: as §1

SNU668 = test: as above; conditions: SNU668 cells (SEM subtype); 72 hours
How it was run: as §1

KATO3 = test: as above; conditions: KATO3 cells; 72 hours
How it was run: as §1

SNU620 = test: as above; conditions: SNU620 cells; 72 hours
How it was run: as §1

SNU484 = test: as above; conditions: SNU484 cells (SEM subtype); 72 hours
How it was run: as §1

SNU1750 = test: as above; conditions: SNU1750 cells (SEM subtype); 72 hours
How it was run: as §1

MKN45 = test: as above; conditions: MKN45 cells (non-SEM subtype); 72 hours
How it was run: as §2

NCC59 = test: as above; conditions: NCC59 cells; 72 hours
How it was run: as §1

OCUM1 = test: as above; conditions: OCUM1 cells; 72 hours
How it was run: as §1

YCC2 = test: as above; conditions: YCC2 cells; 72 hours
How it was run: as §1

SK4 = test: as above; conditions: SK4 cells (SEM subtype); 72 hours
How it was run: as §1

SNU16 = test: as above; conditions: SNU16 cells; 72 hours
How it was run: as §1

YCC3 = test: as above; conditions: YCC3 cells; 72 hours
How it was run: as §1

SNU719 = test: as above; conditions: SNU719 cells; 72 hours
How it was run: as §2

AGS = test: as above; conditions: AGS cells (non-SEM subtype); 72 hours
How it was run: as §2

NCC19 = test: as above; conditions: NCC19 cells; 72 hours
How it was run: as §1

SNU1 = test: as above; conditions: SNU1 cells; 72 hours
How it was run: as §1

MKN28 = test: as above; conditions: MKN28 cells; 72 hours
How it was run: as §1

NCC20 = test: as above; conditions: NCC20 cells; 72 hours
How it was run: as §1

MKN74 = test: as above; conditions: MKN74 cells; 72 hours
How it was run: as §2

YCC11 = test: as above; conditions: YCC11 cells (SEM subtype); 72 hours
How it was run: as §1

Hs746T = test: as above; conditions: Hs746T cells (SEM subtype); 72 hours
How it was run: as §1

SNU601 = test: as above; conditions: SNU601 cells; 72 hours
How it was run: as §1

SNU1967 = test: as above; conditions: SNU1967 cells; 72 hours
How it was run: as §1

NCC24 = test: as above; conditions: NCC24 cells; 72 hours
How it was run: as §1

SMILES	AUC value [1]	Average Area Under the Viability Curve (AUC), AUC norm value (FU97)	Average Area Under the Viability Curve (AUC), AUC norm value (NCI_N87)	Average Area Under the Viability Curve (AUC), AUC norm value (SNU638)	Average Area Under the Viability Curve (AUC), AUC norm value (SNU216)	Average Area Under the Viability Curve (AUC), AUC norm value (MKN1)	Average Area Under the Viability Curve (AUC), AUC norm value (SNU668)	Average Area Under the Viability Curve (AUC), AUC norm value (KATO3)	Average Area Under the Viability Curve (AUC), AUC norm value (SNU620)	Average Area Under the Viability Curve (AUC), AUC norm value (SNU484)	Average Area Under the Viability Curve (AUC), AUC norm value (SNU1750)	Average Area Under the Viability Curve (AUC), AUC norm value (MKN45)	Average Area Under the Viability Curve (AUC), AUC norm value (NCC59)	Average Area Under the Viability Curve (AUC), AUC norm value (OCUM1)	Average Area Under the Viability Curve (AUC), AUC norm value (YCC2)	Average Area Under the Viability Curve (AUC), AUC norm value (SK4)	Average Area Under the Viability Curve (AUC), AUC norm value (SNU16)	Average Area Under the Viability Curve (AUC), AUC norm value (YCC3)	Average Area Under the Viability Curve (AUC), AUC norm value (SNU719)	Average Area Under the Viability Curve (AUC), AUC norm value (AGS)	further results
COC1=CC(c2cc3ccccc3[nH]2)=N/C1=C\c1[nH]c(C)cc1C [Obatoclax mesylate (GX15-070), Obatoclax mesylate]	high	−1.5029	0.636	−0.5094	−0.1398	0.7857	−0.2715	1.383	0.8129	−1.4	−0.872	0.9313	2.5912	0.1302	−0.5916	−1.531	1.841	2.281	2.585	−0.9005	Average Area Under the Viability Curve (AUC), AUC norm value (NCC19): 1.604; Average Area Under the Viability Curve (AUC), AUC norm value (SNU1): 0.5238; Average Area Under the Viability Curve (AUC), AUC norm value (MKN28): −0.3769; Average Area Under the Viability Curve (AUC), AUC norm value (NCC20): −0.9868; Average Area Under the Viability Curve (AUC), AUC norm value (MKN74): −1.051; Average Area Under the Viability Curve (AUC), AUC norm value (YCC11): −0.8407; Average Area Under the Viability Curve (AUC), AUC norm value (Hs746T): 0; Average Area Under the Viability Curve (AUC), AUC norm value (SNU601): 2.791; Average Area Under the Viability Curve (AUC), AUC norm value (SNU1967): −0.4093; Average Area Under the Viability Curve (AUC), AUC norm value (NCC24): 0.2511
Cc1ccc([N+](=O)[O-])cc1S(=O)(=O)N(C)/N=C/c1cnc2ccc(Br)cn12 [PIK-75]	high	−0.5267	−0.1238	1.312	0.8132	−0.03458	−0.428	3.793	0.7882	−0.9469	0	1.17	−0.1565	0.5105	1.289	−1.009	−1.485	1.723	5.726	−1.2576	Average Area Under the Viability Curve (AUC), AUC norm value (NCC19): 0.3535; Average Area Under the Viability Curve (AUC), AUC norm value (SNU1): −0.3397; Average Area Under the Viability Curve (AUC), AUC norm value (MKN28): 0.05865; Average Area Under the Viability Curve (AUC), AUC norm value (NCC20): −0.4913; Average Area Under the Viability Curve (AUC), AUC norm value (MKN74): 0.2052; Average Area Under the Viability Curve (AUC), AUC norm value (YCC11): −0.5398; Average Area Under the Viability Curve (AUC), AUC norm value (Hs746T): 0.1171; Average Area Under the Viability Curve (AUC), AUC norm value (SNU601): 1.999; Average Area Under the Viability Curve (AUC), AUC norm value (SNU1967): −0.3048; Average Area Under the Viability Curve (AUC), AUC norm value (NCC24): −0.07825
